Test results taken from PMC2212407 (The Journal of Experimental Medicine, 1998).
Read-outs that look alike come from different tables or passages of the source.

How the values were obtained:
Assay type in all cases: cell-based, human
[1] = system: fresh PBMCs from asymptomatic HIV-1+ patients
[2] = system: fresh PBMCs from patient 744; assay: Proliferation assay of fresh PBMCs from patient 744
[3] = system: fresh PBMCs from patient 024
T cell line 024 = assay: Proliferation of CD4+ T cell line 024; details: T cell line 024 initiated on day 71, autologous APCs

Substance | Mean proliferation (SI) ([1]; Total, 43 patients) | Mean proliferation (SI) ([1]; patients responding to PHA and tetanus toxoid only (n = 12)) | Mean proliferation (SI) ([1]; patients responding to PHA, tetanus toxoid, and HIV antigens (n = 12)) | Proliferation of fresh PBMCs from patient 744, result in words [2] | Proliferative response (SI) [3] | Stimulation of T cell line 024, result in words (T cell line 024)
Tetanus toxoid: the recall antigen tetanus toxoid | 21 ± 65 | 45 ± 117 | 31 ± 32 | showed a response | – | –
LRPRGKKRYKLKHIV [p17-3/1] | – | – | – | – | 1 | failed to stimulate
LRPGGKKQYRLKHIV [p17-3/2] | – | – | – | – | – | failed to stimulate
